The record followed here is patent publication US20190144867A1, “METHOD FOR MITIGATING METASTASIS” (RESEARCH FOUNDATION OF THE CITY UNIVERSITY OF NEW YORK, priority 2015, published 2019).

The subject of the assay is SN12L1 metastatic renal carcinoma cells. As to the kind of experiment: Modified Boyden chamber 3D migration/invasion with interstitial flow. Format: cell-based, human. The following applies: for normalized migration response to interstitial flow with MAPK signaling inhibitors: flow normalized to no-flow controls, FIG. 5; for migration response to interstitial flow following GAG enzymatic cleavage: 4h and 24h exposure to interstitial flow, normalized by no-flow controls. On the procedure: A modified Boyden chamber was used to apply interstitial flow forces to cells in a three-dimensional culture, mimicking those experienced by tumor cells within the interstitium. See Integr Biol (Camb) 2013; 5(11): 1334-43 for details. Briefly, cells were suspended in type I collagen (4 mg/ml), exposed to fluid flow forces via a Darcy flow apparatus (4 h), permitted to migrate for 24 h (without flow) through Transwell chambers (with 8μm pore filters) towards 1 nM TGF-α. Invasion rates were quantified by counting cells present on the underside of the filters. For these tests, only a 4 hour exposure to flow at the lowest shear stress level was applied using a 1 cm H2O hydrostatic pressure differential to drive the flow. Shear stress transmitted to the cell surface through the glycocalyx layer was estimated to be approximately 0.84 dynes/cm^2 and the interstitial flow velocity was 0.83 μm/sec as measured previously, which is in the physiologic range of tumor interstitial flows (0.1-2.0 μm/sec). In addition, baseline migration rates (without flow) for all clonal lines were determined. Based on proliferation rates, HS expression, baseline and flow-mediated migration rates, the CtGFP and shORG-8 cell lines were selected as a paired match for continued experimentation.

Take `N#CC(=C(/N)Sc1ccccc1N)/C(C#N)=C(\N)Sc1ccccc1N` [U0126, reference compound]: the “normalized migration response to interstitial flow with MAPK signaling inhibitors” value is given as “inhibited flow-induced enhancement of migration”.

For `O=C1c2ccccc2-c2n[nH]c3cccc1c23` [JNK Inhibitor II, reference compound], the “normalized migration response to interstitial flow with MAPK signaling inhibitors” value was “inhibited flow-induced enhancement of migration”.

With `C[S+]([O-])c1ccc(-c2nc(-c3ccncc3)c(-c3ccc(F)cc3)[nH]2)cc1` (stereo not shown) [SB 203580, reference compound], the “normalized migration response to interstitial flow with MAPK signaling inhibitors” value is reported as “inhibited flow-induced enhancement of migration”.

As for hyaluronidase, the “migration response to interstitial flow following GAG enzymatic cleavage” value is on record as “greatly suppressed” (FIG. 4) and “significantly inhibit” (FIG. 4, listed as Hyaluronidase).

Take heparinase III: the “migration response to interstitial flow following GAG enzymatic cleavage” value was “greatly suppressed” (FIG. 4) and “significantly inhibit” (FIG. 4, listed as heparinase).
